Measured values taken from patent US9738591B2, “Antimicrobial compounds” (priority 2009, dated 2017).
Values after ≈ are worked out from the molar mass of the structure shown.

Legend:
[1] = test system: Moraxella catarrhalis NCTC 3625; assay: Disk diffusion; settings: 10 mg/ml, 20 μl; repeat, strain NCTC 3625
[2] = test system: Yersinia enterocolitica ATCC 9610; assay: Disk diffusion; type: cell-based; settings: 10 mg/ml, 20 μl
[3] = test system: Bacillus cereus ATCC 13061; assay: Disk diffusion; settings: 10 mg/ml, 20 μl
E. coli NCTC 10418 = assay: Broth microdilution MIC and MBC, expanded testing range; type: cell-based; settings: Escherichia coli, NCTC10418; MHB, growth-method inoculum, range 1024 to 0.5 μg/ml
Procedure: (§1) The method used was based on CLSI protocols for broth microdilution testing of these species. As recommended by CLSI, inocula were prepared by direct colony suspension, and the media used were cation-adjusted Mueller Hinton broth (CA-MHB) for Staphylococcus spp. and CA-MHB containing 5% lysed horse blood (CA-MHB+LHB) for Streptococcus spp. Briefly, 24 h blood agar plate (BA) cultures of Staphylococcus aureus strains NCTC 6571, ATCC 29213, ATCC 33592 (MRSA) and NCTC 10442 (MRSA), Staphylococcus epidermidis ATCC 29971, Staphylococcus xylosus ATCC 29971, Streptococcus pneumoniae strains ATCC 49619 and ATCC 6305, and Streptococcus pyogenes strains NCTC 8191 and NCTC 8302 were used to prepare 0.5 McFarland suspensions in saline. Two 640 μg/ml working stocks of TSB007 were prepared from a fresh master stock, one in CA-MHB for testing against the Staphylococcus spp. and the other in CA-MHB+LHB for testing against Streptococcus spp. The working stocks were further diluted 1/10 in these broths for adding to microtitre trays to test MICs of 32, 16, 8, 4, 2, 1, 0.5, 0.25, 0.125 and 0.06 μg/ml.
(§2) The wells of two 96-well microtitre trays (one for Staphylococcus spp. and one for Streptococcus spp.) were filled with 100 μl of the appropriate broth, except for the first column. The last column, a sterility control containing no TSB007 or inoculum, was filled with an additional 100 μl broth. Then 100 μl of the 64 μg/ml TSB007 solution was added to the first two columns, the contents of column 2 was mixed, then 100 μl of this was used in two-fold serial dilutions along the rest of the tray except the last two columns. The final 100 μl was discarded. […] Finally, to the first 11 wells of one row per strain, 100 μl of a 10^−2 dilution (in the appropriate broth) of the 0.5 McFarland suspension was added. The microtitre trays were then incubated at 35° C. for 24 h before the MICs were read visually. Wells were further subcultured (10 μl drop onto BA then incubated at 35° C. for 24 h) and colonies subsequently counted to determine minimum bactericidal concentrations (MBCs). The concentration of the initial inoculum was confirmed on BA by counting colonies from 2×10 μl spots of 10^−5 dilutions of the 0.5 McFarland suspensions. Testing was performed on two separate occasions.
(§3) The method described above, with some modifications, was used to determine the MIC and MBC for S. aureus NCTC 6571 and E. coli NCTC 10418. Concentrations of the compound were previously too low to determine the MBC of this S. aureus strain. Modifications were the use of Mueller-Hinton broth (MHB) instead of CA-MHB, the preparation of bacterial inoculum by the growth method instead of direct colony suspension, and the use of more concentrated working stocks and test concentrations of TSB007. […]

S. aureus NCTC 6571 [4] = assay: as above; type: cell-based; settings: Staphylococcus aureus, NCTC6571; MHB, growth-method inoculum, range 1024 to 0.5 μg/ml
Procedure: as §1, §2, §3

[5] = test system: Salmonella enterica subsp. enterica serovar Typhimurium ATCC 13311; assay: Disk diffusion; settings: 10 mg/ml, 20 μl; repeat
[6] = test system: S. aureus and S. epidermidis; assay: MIC by broth microdilution; type: cell-based; settings: CA-MHB, read-out: lowest MICs
Procedure: as §1, with “The working stocks were further diluted 1/10 in these broths for adding to microtitre trays to test MICs of 32, 16, 8, 4, 2, 1, 0.5, 0.25, 0.125 and 0.06 μg/ml.” left out
The wells of two 96-well microtitre trays (one for Staphylococcus spp. and one for Streptococcus spp.) were filled with 100 μl of the appropriate broth, except for the first column. […] The microtitre trays were then incubated at 35° C. for 24 h before the MICs were read visually. Wells were further subcultured (10 μl drop onto BA then incubated at 35° C. for 24 h) and colonies subsequently counted to determine minimum bactericidal concentrations (MBCs). […]

[7] = test system: Escherichia coli NCTC 10538; assay: Disk diffusion; settings: 10 mg/ml, 20 μl; repeat; value printed with '?'
[8] = test system: S. aureus NCTC 10442 (MRSA); assay: MIC and MBC by broth microdilution; type: cell-based; settings: Staphylococcus aureus, CA-MHB, two independent replicates
Procedure: as §1, §2

S. pneumoniae ATCC 49619 = assay: MIC and MBC by broth microdilution; type: cell-based; settings: Streptococcus pneumoniae, ATCC49619, CA-MHB+LHB, two independent replicates
Procedure: as §1, §2

S. xylosus ATCC 29971 = assay: MIC and MBC by broth microdilution; type: cell-based; settings: Staphylococcus xylosus, ATCC29971, CA-MHB, two independent replicates
Procedure: as §1, §2

S. pyogenes NCTC 8302 = assay: MIC and MBC by broth microdilution; type: cell-based; settings: Streptococcus pyogenes, NCTC8302, CA-MHB+LHB, two independent replicates
Procedure: as §1, §2

S. pyogenes NCTC 8191 = assay: MIC and MBC by broth microdilution; type: cell-based; settings: Streptococcus pyogenes, NCTC8191, CA-MHB+LHB, two independent replicates
Procedure: as §1, §2

S. pneumoniae ATCC 6305 = assay: MIC and MBC by broth microdilution; type: cell-based; settings: Streptococcus pneumoniae, ATCC6305, CA-MHB+LHB, two independent replicates
Procedure: as §1, §2

S. aureus ATCC 29213 = assay: MIC and MBC by broth microdilution; type: cell-based; settings: Staphylococcus aureus, ATCC29213, CA-MHB, two independent replicates
Procedure: as §1, §2

[9] = test system: S. aureus ATCC 33592 (MRSA); assay: MIC and MBC by broth microdilution; type: cell-based; settings: Staphylococcus aureus, CA-MHB, two independent replicates
Procedure: as §1, §2

S. aureus NCTC 6571 [10] = assay: MIC and MBC by broth microdilution; type: cell-based; settings: Staphylococcus aureus, NCTC6571, CA-MHB, two independent replicates
Procedure: as §1, §2

[11] = test system: Citrobacter freundii NCTC 9750/ATCC 8090; assay: Disk diffusion; settings: 10 mg/ml, 20 μl; repeat

With O=C(O)c1ccc(/C=C/c2cc(/C=C/c3ccc(C(=O)O)cc3)cc(/C=C/c3ccc(C(=O)O)cc3)c2)cc1 [TSB007] the “Zone diameters, Repeat Results” value [1] was 36 trim, the “Zone diameters, 24 h TSB007” value [2] was 7 trim and the “Zone diameters, 24 h TSB007” value ([3]; 24 h) was 10 trim. For the same compound, the “Zone diameters, 48 h TSB007” value ([3]; 48 h) was 9 trim, the “Zone diameters, Repeat Results” value ([3]; repeat) was 9 trim and the MBC (E. coli NCTC 10418) was over 1020 µg/mL. For the same compound, the MIC (E. coli NCTC 10418) was 512 µg/mL (≈ 991 µM), the MBC (S. aureus NCTC 6571 [4]) was 128 to 256 µg/mL (≈ 248 to 496 µM) and the MIC (S. aureus NCTC 6571 [4]) was 2 µg/mL (≈ 3.87 µM). The “Zone diameters, Repeat Results” value [5] was 11 trim, the MIC [6] was 4 µg/mL (≈ 7.74 µM) and the “Zone diameters, Repeat Results” value [7] was 7.5? trim. It also gave an MIC ([8]; 35° C., 24 h) of 2 to 4 µg/mL (≈ 3.87 to 7.74 µM), an MBC [8] of over 32 µg/mL and an MIC (S. pneumoniae ATCC 49619; 35° C., 24 h) of 32 µg/mL (≈ 61.9 µM). It also gave an MBC (S. pneumoniae ATCC 49619) of over 32 µg/mL, an MIC (S. xylosus ATCC 29971; 35° C., 24 h) of 8 to 16 µg/mL (≈ 15.5 to 31 µM) and an MBC (S. xylosus ATCC 29971) of 8 to 16 µg/mL (≈ 15.5 to 31 µM). For the same compound, the MIC (S. pyogenes NCTC 8302; 35° C., 24 h) was over 32 µg/mL, the MBC (S. pyogenes NCTC 8302) was over 32 µg/mL and the MIC (S. pyogenes NCTC 8191; 35° C., 24 h) was over 32 µg/mL. It also gave an MBC (S. pyogenes NCTC 8191) of over 32 µg/mL, an MIC (S. pneumoniae ATCC 6305; 35° C., 24 h) of over 32 µg/mL and an MBC (S. pneumoniae ATCC 6305) of over 32 µg/mL. It also gave an MIC (S. aureus ATCC 29213; 35° C., 24 h) of 4 µg/mL (≈ 7.74 µM), an MBC (S. aureus ATCC 29213) of over 32 µg/mL and an MIC ([9]; 35° C., 24 h) of 2 to 4 µg/mL (≈ 3.87 to 7.74 µM). The MBC [9] was over 32 µg/mL, the MIC (S. aureus NCTC 6571 [10]; 35° C., 24 h) was 2 to 4 µg/mL (≈ 3.87 to 7.74 µM) and the MBC (S. aureus NCTC 6571 [10]) was over 32 µg/mL. The “Zone diameters, Repeat Results” value [11] was 9 trim.
